The record followed here is patent US10420761B2, “Allosteric inhibitors of thymidylate synthase” (UNIVERSITY OF FLORIDA RESEARCH FOUNDATION, INCORPORATED, priority 2013, dated 2019).

The structures appear in SMILES notation. Read-outs that look alike come from different tables or passages of the source.

The subject of series [1] is small cell lung cancer cell line H1607. Briefly: MTS cell viability assay, H1607. The series is classed as cell-based. The settings on record: Homo sapiens, SCLC, 72-hour incubation, unit inferred. As to the method: (§1) Antiproliferative effects of 27 novel TS inhibitors were tested by MTS assay (Promega) in human cancer cell lines representing several major tumor types known to overexpress TS including lung, cervical, pancreatic and hematopoietic tumors. Six compounds (S, U, P, M, G and J) reduced cell viability by more than 40% in both human cervical cancer HeLa (FIG. 6) and myelogenous leukemia K562 cell lines (FIG. 7).
(§2) Complete dose response relationships for five most promising compounds (P, U, S, M and G) have been established in pancreatic neuroendocrine cancer, pancreatic ductal cancer and small cell lung cancer cell lines (Table 3). […] In pancreatic neuroendocrine tumors Bon1 and CM—the range was larger with GI50 values within 0.1-100 μM (FIGS. 10, 11). Such discrepancy in response to drugs between Bon1 and CM cells can be explained at least in part by different tumor type of these cells. CM cells were derived from insulinoma, a typical beta cell tumor that secrets insulin while Bon cells are carcinoid tumors derived from lymph nodes that produce serotonin.
(§3) 27 top scoring compounds that were identified by in silico screening were tested in human cancer cell lines. Cancer cell lines used for inhibitor testing were maintained under 70% confluency in appropriate cell culture medium (typically DMEM, supplemented with 10% FBS, and 1% pen-strep). Small molecule compounds were obtained from NCI DTP, resuspended in DMSO to generate 50 mM stocks and stored in the dark. In all experiments, fresh compound preparations were used whenever possible and no more than 2 freeze-thaw cycles were allowed for all drug tested. Cells were seeded in 96-well plates in quadruplicates (4 wells/condition) at 4000 cells/well. Compound solutions were freshly prepared in the appropriate cell culture medium and were added the following morning to the cells. After 72-hour incubation with the compound, cell proliferation was measured by MTS assays (Promega) and compared to that of the untreated cells or control drug, such as 5-FU or pemetrexed. Dose-response parameters were determined by plotting percent cell proliferation after treatment from at least eight different compound concentrations and by using non-linear regression fit (4-parameter dose-response) in Sigmaplot. All results shown are representative of at least 3 independent experiments.
A general note: Tetrazolium dyes change colour on reduction, which living cells bring about.

Series [2] has as its system pancreatic neuroendocrine cell line CM (insulinoma). Briefly: MTS cell viability assay, CM. The series is classed as cell-based. As for the experimental part: as §1, §2, §3
Series [3] has as its system pancreatic ductal adenocarcinoma cell line Miapaca-2. The series can be described thus: MTS cell viability assay, MiaPaca-2. The series is classed as cell-based. The settings on record: Homo sapiens, MIA PaCa-2, PDAC, 72-hour incubation, unit inferred. As to the method: as §1, §2, §3
In series [4] the test system is small cell lung cancer cell line H1048. The series can be described thus: MTS cell viability assay, H1048. The series is classed as cell-based. The settings on record: Homo sapiens, NCI-H1048. As for the experimental part: as §1, §2, §3
Series [5] has as its system pancreatic ductal adenocarcinoma cell line Panc-1. The series can be described thus: MTS cell viability assay, Panc-1. The series is classed as cell-based. The settings on record: Homo sapiens, PDAC, 72-hour incubation, unit inferred. As for the experimental part:
as §1, §2, §3

Series [6] relates to pancreatic neuroendocrine cell line Bon1. Briefly: MTS cell viability assay, Bon-1. The series is classed as cell-based. As for the experimental part: as §1, §2, §3
The subject of series [7] is mouse histiocytic sarcoma cell line 5278mHS (p16 deletion, activated hTS). Briefly: MTS cell viability assay, mouse histiocytic sarcoma. The series is classed as cell-based. As to the method: (§4) We also tested the compounds S, U and P in mouse histiocytic sarcoma cell line that was derived from genetically engineered mouse model with p16 deletion and activated hTS overexpression. […] Dose-response curves and GI50 values for all compounds tested can be found in Table 3 and FIGS. 8-13.
as §3

The test system of a further series is human cancer cell lines. The series can be described thus: MTS cell viability assay, statements over several cell lines. The settings on record: for GI50: Homo sapiens. The series is classed as cell-based. As for the experimental part:
as §1, §2, §4, §3

The format of series [8] is in vivo. As to the method:
To establish the maximum tolerated dose (MTD) for most promising new inhibitors, both immunodeficient SCID and immunocompetent FVB.129 mice were treated daily with compound S and methylated version of compound S at 12.5, 50, and 100 MKG (mg/kg) by i.p. injection (Tables 4 and 5). SCID immunodeficient mice were i.p. injected daily for 3 weeks and kept under observation for one additional week. Animals' weights were measured daily and the data is presented as the percentage of weight change from day 1 of treatment to day 28 at the termination of the experiment (Table 4). FVB.129 immunocompetent mice were i.p. injected daily for 2 weeks and kept under observation for one additional week. Animals' weights were measure daily and the data is presented as the percentage of weight change from day 1 of treatment to day 21 at the termination of the experiment (Table 5).
The SCID immunodeficient mice were i.p. injected daily for 3 weeks and kept under observation for one additional week. Animals' weights were measured daily and the data are presented as the percentage of weight change from day 1 of treatment to day 28 at the termination of the experiment (Table 4). The MTD for SCID mice for both compounds was 50 MKG. The FVB.129 immunocompetent mice were i.p. injected daily for 2 weeks and kept under observation for one additional week. Animals' weights were measured daily and the data are presented as the percentage of weight change from day 1 of treatment to day 21 at the termination of the experiment (Table 5). […] Thus, we have identified a derivative of compounds S that is less toxic to immunocompetent FVB.129 mice.

The nature of another series: in vivo. As to the method:
(§5) SCID immunodeficient mice were i.p. injected daily for 3 weeks and kept under observation for one additional week. Animals' weights were measured daily and the data is presented as the percentage of weight change from day 1 of treatment to day 28 at the termination of the experiment (Table 4). FVB.129 immunocompetent mice were i.p. injected daily for 2 weeks and kept under observation for one additional week. Animals' weights were measure daily and the data is presented as the percentage of weight change from day 1 of treatment to day 21 at the termination of the experiment (Table 5).
as §5, with “The SCID immunodeficient” for “SCID immunodeficient”, “the data are presented as” for “the data is presented as”, “(Table 4). […] The FVB.129 immunocompetent” for “(Table 4). FVB.129 immunocompetent”, “weights were measured daily and” for “weights were measure daily and”

The mark [9] stands for this setting: PNET, 72-hour incubation, MTS, unit inferred, read-out: GI50 CM.
[10] abbreviates: SCLC, 72-hour incubation, MTS, unit inferred, read-out: GI50 H1048.
The mark [11] stands for this setting: PNET, 72-hour incubation, MTS, unit inferred, read-out: GI50 Bon-1.
The mark [12] stands for this setting: mouse histiocytic sarcoma cell line, range over compounds S, U and P, read-out: GI50 values from.
Where [13] appears, read: mouse histiocytic sarcoma, MTS, unit inferred, read-out: GI50 5278mHS.
[14] abbreviates: NCI-H1048, range over small cell lung cancer cell lines H1607 and H1048 and the five compounds, read-out: GI50 values in the range.
Where [15] appears, read: range over pancreatic ductal adenocarcinoma cell lines Miapaca-2 and Panc-1 and the five compounds, read-out: GI50 values between.
Where [16] appears, read: up to, over the tested cell lines.

In the case of `Nc1nc2[nH]cc(CCc3ccc(C(=O)N[C@@H](CCC(=O)O)C(=O)O)cc3)c2c(=O)[nH]1` [Pemetrexed, pemetrexed, reference compound], the GI50 (usually the concentration that inhibits growth by half) in [1] is above 200 µM; in [2] (setting [9]), 0.087 µM; in series [3], above 200 µM; in series [4] (setting [10]), 0.13 µM; in series [5], above 200 µM; in [6] (setting [11]), above 200 µM.
`O[C@@H](c1cc(C(F)(F)F)nc2c(C(F)(F)F)cccc12)C1CCCCN1` (stereo partly drawn) [P, (1S)-(2,8-bis(trifluoromethyl)quinolin-4-yl)(piperidin-2-yl)methanol]: the GI50 in series [1] came out at 8.6 µM; in series [2] (setting [9]), 16 µM; in [3], 7 µM; in [4] (setting [10]), 16 µM; in series [5], 8.4 µM; in [6] (setting [11]) it was 7.6 µM. The concentration for 50% growth inhibition (GI50) is 0.4 to 20 µM in series [7] (setting [12]), 2.3 µM in series [7] (setting [13]), 0.09 to 29 µM in the series on human cancer cell lines (setting [14]) and 0.5 to 24 µM in the series on human cancer cell lines (setting [15]).
As to `O=c1[nH]cc(F)c(=O)[nH]1` [Compound 5-FU, 5-fluorouracil, reference compound], the 50% growth inhibitory concentration (GI50) in [1] came out at 36 µM; in series [2] (setting [9]), 16 µM; in series [3] it was 8.1 µM; in series [4] (setting [10]) it was 2.3 µM; in series [5] it was 11 µM; in [6] (setting [11]), 7.6 µM.
On to `CCc1nc(N)nc(N)c1-c1ccc(N(C)Cc2ccccc2)c([N+](=O)[O-])c1` [Compound S, 5-[4-[benzyl(methyl)amino]-3-nitrophenyl]-6-ethylpyrimidine-2,4-diamine], for which the GI50 is 8.2 µM in [1]; 0.093 µM in series [2] (CM (insulinoma), read-out: GI50); 0.093 µM in series [2] (setting [9]); 0.48 µM in series [3]; 0.096 µM in series [4] (H1048 (SCLC), read-out: GI50); 0.096 µM in series [4] (setting [10]). Also, the GI50 in series [5] is 0.93 µM; in series [6] (Bon1 cells, read-out: GI50) it was 100 µM; in [6] (setting [11]), 100 µM; in series [7] (setting [12]), 0.4 to 20 µM; in series [7] (setting [13]) it was 0.42 µM; with human cancer cell lines (setting [14]), 0.09 to 29 µM. For the same compound, the GI50 with human cancer cell lines (setting [15]) was 0.5 to 24 µM. Further, the “animal found dead, D6” value in series [8] (FVB.129 mice, 50 MKG i.p. daily, single mice) is listed as “FDN”. Besides, the “animal found dead, D5” value in series [8] (FVB.129 mice, 100 MKG i.p. daily, single mice) is on record as “FDN”. Further, the “day after treatment at which animals died” value in series [8] (FVB.129, mouse, in vivo, ip, 2 weeks) amounted to 6 days. The “fold lower GI50 than 5-FU” value in the series on human cancer cell lines (setting [16]) is reported as “up to 169 fold”. Besides, the “fold lower GI50 than pemetrexed” value with human cancer cell lines (setting [16]) is recorded as “up to 416 fold”. In addition, in the series “in vivo” (SCID mice, 100 MKG i.p. daily, single mice), the “animal found dead, D2” value is recorded as “FDN”. In “in vivo” (SCID, mouse, in vivo, ip, MTD), this compound yielded an MTD at 3 weeks of at least 50 mg/kg.
Regarding `CCN(CC)C1=CC(=O)/C(=N/Nc2cc(Br)ccn2)C=C1` [U, (E)-6-(2-(4-bromopyridin-2-yl)hydrazono)-3-(diethylamino)cyclohexa-2,4-dienone], the concentration for 50% growth inhibition (GI50) in [1] came to 2.5 µM; in series [2] (setting [9]), 13 µM; in series [3] it was 12 µM; in series [4] (setting [10]), 3.1 µM; in series [5], 1.3 µM; in [6] (setting [11]), 2.4 µM. For the same compound, the 50% growth inhibitory concentration (GI50) in series [7] (setting [12]) is 0.4 to 20 µM; in series [7] (setting [13]), 21 µM; in the series with human cancer cell lines (setting [14]) it was 0.09 to 29 µM; in the series on human cancer cell lines (setting [15]), 0.5 to 24 µM.
Consider `COc1ccc(Cc2c[nH]cc3c(=O)c(OC)ccc2-3)cc1O` [Compound M, 4-(3-hydroxy-4-methoxybenzyl)-7-methoxyisoquinolin-8(2H)-one], for which the GI50 was determined as 2.6 µM in series [1]; 29 µM in series [2] (setting [9]); 24 µM in [3]; 16 µM in series [4] (setting [10]); 15 µM in series [5]; 26 µM in series [6] (setting [11]). Moreover, the GI50 in the series on human cancer cell lines (setting [14]) lay within 0.09 to 29 µM; in the series on human cancer cell lines (setting [15]), 0.5 to 24 µM.
With `CN(Cc1ccoc1)Cc1nnc(SCCOc2ccccc2)n1C` [Compound G, 1-(furan-3-yl)-N-methyl-N-((4-methyl-5-((2-phenoxyethyl)thio)-4H-1,2,4-triazol-3-yl)methyl)methanaminium], the GI50 turned out to be 29 µM in series [1]; 32 µM in [2] (setting [9]); 9.7 µM in [3]; 4.3 µM in series [4] (setting [10]); 15 µM in series [5]; 0.39 µM in series [6] (setting [11]). In addition, the figures for the 50% growth inhibitory concentration (GI50) in the series on human cancer cell lines (setting [14]) and in the series with human cancer cell lines (setting [15]) were 0.09 to 29 µM and 0.5 to 24 µM, respectively.
